Our source for the inhibition values is ChEMBL document CHEMBL2331125, “Anthraquinone Derivatives as Potent Inhibitors of c-Met Kinase and the Extracellular Signaling Pathway” (ACS Med Chem Lett, 2013).

For this assay, the target named is Hepatocyte growth factor receptor (Mus musculus) (UniProt P16056). The assay can be described thus: Inhibition of TPR-Met phosphorylation in mouse BAF3 cells at 10 uM after 2 hrs by Western blot analysis. It counts as cell-based. In general terms: Immunoblotting shows a protein as a band on a membrane.
Chain of Hepatocyte growth factor receptor (Mus musculus) (P16056 whole entry): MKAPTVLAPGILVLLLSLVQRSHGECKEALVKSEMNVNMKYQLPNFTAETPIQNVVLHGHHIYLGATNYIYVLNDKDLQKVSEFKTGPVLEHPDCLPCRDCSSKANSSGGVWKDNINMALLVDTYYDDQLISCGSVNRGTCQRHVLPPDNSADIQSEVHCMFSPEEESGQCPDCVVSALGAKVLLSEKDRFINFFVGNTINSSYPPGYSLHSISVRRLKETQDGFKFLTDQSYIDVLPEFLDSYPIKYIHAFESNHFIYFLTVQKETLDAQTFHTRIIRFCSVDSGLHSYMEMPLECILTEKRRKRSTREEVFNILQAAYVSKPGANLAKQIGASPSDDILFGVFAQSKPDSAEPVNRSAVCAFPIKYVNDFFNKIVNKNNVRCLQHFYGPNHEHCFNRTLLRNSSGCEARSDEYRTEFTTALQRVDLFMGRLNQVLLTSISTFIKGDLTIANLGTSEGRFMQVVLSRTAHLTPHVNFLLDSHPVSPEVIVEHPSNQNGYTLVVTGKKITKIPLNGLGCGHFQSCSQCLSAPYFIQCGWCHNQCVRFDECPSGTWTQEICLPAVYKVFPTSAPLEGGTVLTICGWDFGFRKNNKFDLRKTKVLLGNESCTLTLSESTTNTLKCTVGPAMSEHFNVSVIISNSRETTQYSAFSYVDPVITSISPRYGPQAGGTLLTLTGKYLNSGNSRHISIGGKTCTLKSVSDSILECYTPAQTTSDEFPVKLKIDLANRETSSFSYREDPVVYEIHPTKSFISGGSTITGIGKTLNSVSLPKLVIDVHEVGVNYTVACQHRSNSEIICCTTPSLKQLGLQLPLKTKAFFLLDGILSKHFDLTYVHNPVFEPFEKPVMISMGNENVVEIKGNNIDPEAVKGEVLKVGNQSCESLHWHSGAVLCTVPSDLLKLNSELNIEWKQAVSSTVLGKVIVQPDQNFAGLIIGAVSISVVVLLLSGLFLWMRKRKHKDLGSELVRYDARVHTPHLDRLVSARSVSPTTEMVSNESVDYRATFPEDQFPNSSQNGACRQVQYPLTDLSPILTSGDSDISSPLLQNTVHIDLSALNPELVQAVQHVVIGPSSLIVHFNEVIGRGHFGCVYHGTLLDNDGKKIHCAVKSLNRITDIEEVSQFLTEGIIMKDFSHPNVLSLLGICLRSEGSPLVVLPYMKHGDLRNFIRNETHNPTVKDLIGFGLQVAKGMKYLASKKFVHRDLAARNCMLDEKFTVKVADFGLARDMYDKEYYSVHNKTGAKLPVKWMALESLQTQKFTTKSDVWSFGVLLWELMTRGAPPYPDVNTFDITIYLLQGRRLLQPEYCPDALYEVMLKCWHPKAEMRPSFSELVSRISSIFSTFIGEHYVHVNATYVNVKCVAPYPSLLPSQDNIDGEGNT

Activity calls are given as the source filed them. The rule behind the calls is not given here.

On to `Cc1cc(Nc2cc(S(=O)(=O)O)c(N)c3c2C(=O)c2ccccc2C3=O)ccc1-c1ccc(Nc2cc(S(=O)(=O)O)c(N)c3c2C(=O)c2ccccc2C3=O)cc1C`, for which the inhibition result was “inactive”.
Next, `Nc1c(S(=O)(=O)O)cc(Nc2ccc(Cc3ccc(Nc4cc(S(=O)(=O)O)c(N)c5c4C(=O)c4ccccc4C5=O)cc3)cc2)c2c1C(=O)c1ccccc1C2=O`: “inactive”.
With `Cc1cc(-c2ccc(Nc3cc(S(=O)(=O)O)c(N)c4c3C(=O)c3ccccc3C4=O)c(C)c2)ccc1Nc1cc(S(=O)(=O)O)c(N)c2c1C(=O)c1ccccc1C2=O` the entry was “inactive”; with `Nc1c(S(=O)(=O)O)cc(Nc2ccc(-c3ccc(Nc4ncccn4)cc3)cc2)c2c1C(=O)c1ccccc1C2=O`, “inactive”; with `Nc1ccc(-c2ccc(Nc3cc(S(=O)(=O)O)c(N)c4c3C(=O)c3ccccc3C4=O)cc2)cc1`, “inactive”.
With `Nc1c(S(=O)(=O)O)cc(Nc2ccc(-c3ccc(Nc4cc(S(=O)(=O)O)c(N)c5c4C(=O)c4ccccc4C5=O)cc3)cc2)c2c1C(=O)c1ccccc1C2=O` the entry was “inactive”; with `CC(=O)Nc1ccc(-c2ccc(Nc3cc(S(=O)(=O)O)c(N)c4c3C(=O)c3ccccc3C4=O)cc2)cc1`, “inactive”.
For the compound `Cc1cc(-c2ccc(Nc3cc(S(=O)(=O)O)c(N)c4c3C(=O)c3ccccc3C4=O)c(C)c2)ccc1N`, the inhibition result is “inactive”.
